27 molecules from patent publication US8193351B2, “HSP90 inhibitor” (Chugai Seiyaku Kabushiki Kaisha, priority 2006, dated 2012) can be followed below.

One assay concerns the target T1, Human HSP90 alpha (Homo sapiens, UniProt P07900).
T1 construct: made in house; host or cells: E. coli BL21 codon plus (Stratagene)
Kind of assay: Measurement of HSP90 enzyme inhibitory activity (ATPase, malachite green). Type of assay: biochemical. The note with it: purified human HSP90 alpha, 1 mM ATP added, 37° C., two hours; read-out: Enzyme inhibitory activity (IC50, μM) Human HSP 90α. Here is the method:
HSP90 enzyme inhibitory activity of the compounds of the present invention represented by formula (1) was measured by the following method. Among the 6-phenyl-N-phenyl-(1,3,5)triazin/(1,3)pyrimidin-2,4-diamine derivatives which are known LPAAT-β inhibitors, the following two compounds were used as comparative compounds, and their HSP90 enzyme inhibitory activities were measured similarly by the following method.
Introduction of pETHuHSP90a into E. coli (BL21 codon plus; Stratagene) was followed by O/N incubation in the presence of 0.1 mM IPTG, and the collected E. coli cells were disrupted by ultrasonication in a Lysis buffer (50 mM Tris-HCl (pH8.0), 10 mM MgCl2, 0.1% Triton X-100, Protease inhibitor cocktail tablets (Roche Diagnostics)). The cell lysate solution was centrifuged (10,000 rpm×30 minutes), and the supernatant obtained after centrifugation was used as a crude extract. The crude extract was fractionated using HisPrep FF column and HiTrap Q column (Amersham) to prepare a purified enzyme solution.
An enzyme solution for assays was prepared by dilution of the purified enzyme solution using an assay buffer (50 mM Tris HCl pH7.6, 20 mM KCl, 5 mM MgCl2).
10 μL each of various concentrations of the test substances (10% DMSO solution) was added to each well, and for the positive control wells, 10 μL of 10% DMSO was added. 10 μL of 10% DMSO was also added to the negative control well.
10 μL of 1 mM ATP was added to all of the wells, and the reaction was carried out at 37° C. for two hours.

For a further assay, the system named is HCT116 cells. Kind of assay: Measurement of cell growth inhibition (Cell Counting Kit-8, four days). Type of assay: cell-based. The settings on record: Homo sapiens, HCT-116, 96 h; HCT116 colon cancer cell line, four days culture; read-out: Cell growth inhibitory activity (IC50, μM) HCT116. The method, then:
Cell growth inhibitory activities of the compounds of the present invention represented by formula (1) were measured by the following method.
Cells were maintained under conditions recommended by the provider of each cell line. Cells suspended in a medium were added to solutions containing various concentrations of the test substance, and the cells were cultured at 37° C. in a 5% CO2 incubator. Four days later, Cell Counting Kit-8 was added, and absorbance measurements were taken following the protocol included in the kit.

`CSc1nc(N)nc(-c2ccccc2)n1` [4-methylsulfanyl-6-phenyl-[1,3,5]triazin-2-ylamine, reference compound]: at Human HSP90 alpha, the concentration for half-maximal inhibition (IC50) was 33.8 µM. Regarding `Nc1nc(SCc2ccccc2)nc(-c2cc(OCc3ccccc3)c(Cl)cc2Cl)n1` [Example 4, 4-(5-benzyloxy-2,4-dichlorophenyl)-6-benzylsulfanyl[1,3,5]triazin-2-ylamine], the IC50 with HCT116 cells was 8.5 µM; on Human HSP90 alpha it was 1.2 µM.

For `COc1cc(C(=O)N2CCN(C)CC2)ccc1Sc1nc(N)nc(-c2cc(OCC#N)c(Cl)cc2Cl)n1` [Example 15, (5-{4-amino-6-[2-methoxy-4-(4-methyl-piperazin-1-carbonyl)-phenylsulfanyl]-[1,3,5]triazin-2-yl}-2,4-dichlorophenoxy)-acetonitrile], the IC50 came out at 0.35 µM with HCT116 cells and 2 µM at Human HSP90 alpha. Turning to `CSc1nc(N)nc(-c2cc(-c3ncccn3)c(Cl)cc2Cl)n1` [Example 24, 4-(2,4-dichloro-5-pyrimidin-2-yl-phenyl)-6-methylsulfanyl-[1,3,5]triazin-2-ylamine], the half-inhibitory concentration (IC50) with HCT116 cells is 1 µM; at Human HSP90 alpha, 2.1 µM. The corresponding values for `CC(=O)NCCSc1nc(N)nc(-c2cc(-c3ncccn3)c(Cl)cc2Cl)n1` [Example 25, N-{2-[4-amino-6-(2,4-dichloro-5-pyrimidin-2-yl-phenyl)-[1,3,5]triazin-2-ylsulfanyl]-ethyl}-acetamide] are 0.66 µM and 2.6 µM. Turning to `NC(=O)c1cc(-c2nc(N)nc(SCc3ccccc3)n2)c(Cl)cc1Cl` [Example 26, 5-(4-amino-6-benzylsulfanyl-[1,3,5]triazin-2-yl)-2,4-dichlorobenzamide], the half-inhibitory concentration (IC50) was 1.3 µM with HCT116 cells and 2.8 µM at Human HSP90 alpha. Take `Nc1nc(SCc2ccccc2)nc(-c2cc(C(=O)NC(CO)CO)c(Cl)cc2Cl)n1` [Example 28, 5-(4-amino-6-benzylsulfanyl-[1,3,5]triazin-2-yl)-2,4-dichloro-N-(2-hydroxy-1-hydroxymethylethyl)-benzamide]: the 50% inhibitory concentration (IC50) in the assay with HCT116 cells and on Human HSP90 alpha was 1.2 µM throughout. In the case of `COC(=O)c1cc(-c2nc(N)nc(SCC(O)CO)n2)c(C)cc1C` (centres unmarked) [Example 37, 5-[4-amino-6-(2,3-dihydroxypropylsulfanyl)-[1,3,5]triazin-2-yl]-2,4-dimethylbenzoic acid methyl ester], the 50% inhibitory concentration (IC50) was found to be 6.6 µM in the assay on HCT116 cells and 1.4 µM on Human HSP90 alpha. `COc1ccc(OC)c(Sc2cc(-c3ccc(Cl)cc3Cl)nc(N)n2)c1` [Example 39, 4-(2,4-dichlorophenyl)-6-(2,5-dimethoxyphenylsulfanyl)-pyrimidin-2-ylamine]: the IC50 with HCT116 cells amounted to 8.5 µM; on Human HSP90 alpha, 1.8 µM.

For the molecule `COc1ccc(OC)c(Sc2cc(-c3ccc(OCCCO)cc3C)nc(N)n2)c1` [Example 44, 3-{4-[2-amino-6-(2,5-dimethoxyphenylsulfanyl)-pyrimidin-4-yl]-3-methylphenoxy}-propan-1-ol], the half-maximal inhibitory concentration (IC50) in the assay on HCT116 cells turned out to be 14.5 µM; on Human HSP90 alpha it was 2.2 µM. As for `COc1ccc(OC)c(Sc2cc(-c3ccc(OCC#N)cc3C)nc(N)n2)c1` [Example 45, {4-[2-amino-6-(2,5-dimethoxyphenylsulfanyl)-pyrimidin-4-yl]-3-methylphenoxy}-acetonitrile], the 50% inhibitory concentration (IC50) is 4.1 µM in the assay with HCT116 cells and 1.4 µM on Human HSP90 alpha. Turning to `COc1ccc(OC)c(Sc2cc(-c3ccc(OCC(N)=O)cc3C)nc(N)n2)c1` [Example 46, 2-{4-[2-amino-6-(2,5-dimethoxyphenylsulfanyl)-pyrimidin-4-yl]-3-methylphenoxy}-acetamide], the IC50 worked out at 8.1 µM in the assay with HCT116 cells and 1.5 µM on Human HSP90 alpha. Turning to `COc1ccc(OC)c(Sc2cc(-c3cc(OCc4ccccc4)c(Cl)cc3Cl)nc(N)n2)c1` [Example 48, 4-(5-benzyloxy-2,4-dichlorophenyl)-6-(2,5-dimethoxyphenylsulfanyl)-pyrimidin-2-ylamine], the IC50 in the assay on HCT116 cells stood at 42.9 µM; at Human HSP90 alpha, 2.5 µM.

Consider `COc1ccc(OC)c(Sc2cc(-c3cc(OCC#N)c(Cl)cc3Cl)nc(N)n2)c1` [Example 52, {5-[2-amino-6-(2,5-dimethoxyphenylsulfanyl)-pyrimidin-4-yl]-2,4-dichlorophenyoxy}-acetonitrile], for which the values for the half-inhibitory concentration (IC50) in the assay on HCT116 cells and on Human HSP90 alpha were 1.4 µM and 1.7 µM, respectively. On to `N#CCOc1cc(-c2cc(Sc3nc4ccccc4[nH]3)nc(N)n2)c(Cl)cc1Cl` [Example 54, {5-[2-amino-6-(1H-benzimidazol-2-ylsulfanyl)-pyrimidin-4-yl]-2,4-dichlorophenoxy}-acetonitrile], for which the IC50 in the assay on HCT116 cells came to 1.1 µM; at Human HSP90 alpha, 1.5 µM.

For the molecule `CCOC(=O)c1cnc(Sc2cc(-c3cc(OCC#N)c(Cl)cc3Cl)nc(N)n2)[nH]1` [Example 55, 2-[2-amino-6-(2,4-dichloro-5-cyanomethoxyphenyl)-pyrimidin-4-ylsulfanyl]-3H-imidazol-4-carboxylic acid ethyl ester], the IC50 with HCT116 cells turned out to be 5.3 µM; at Human HSP90 alpha, 1.7 µM.

As to `CC(=O)NCCSc1nc(N)nc(-c2cc(OCC#N)c(Cl)cc2Cl)n1` [Example 59, N-{2-[4-amino-6-(2,4-dichloro-5-cyanomethoxy-phenyl)-[1,3,5]triazin-2-ylsulfanyl]-ethyl}-acetamide], the concentration for half-maximal inhibition (IC50) with HCT116 cells came to 0.12 µM; on Human HSP90 alpha, 1 µM. As for `N#CCOc1cc(-c2nc(N)nc(SCCC(=O)N3CCOCC3)n2)c(Cl)cc1Cl` [Example 63, {5-[4-amino-6-(3-morpholin-4-yl-3-oxo-propylsulfanyl)-[1,3,5]triazin-2-yl]-2,4-dichlorophenoxy}-acetonitrile], the half-inhibitory concentration (IC50) in the assay on HCT116 cells was 0.74 µM; at Human HSP90 alpha it was 2 µM. Turning to `COc1ccc(Oc2nc(N)nc(-c3c(Cl)cc4c5c(cccc35)COC4)n2)cc1OC` [Example 82, 4-(5-chloro-1H,3H-benzo[de]isochromen-6-yl)-6-(3,4-dimethoxyphenoxy)-[1,3,5]triazin-2-ylamine], the half-inhibitory concentration (IC50) with HCT116 cells was found to be 6.1 µM; on Human HSP90 alpha, 1.4 µM. Regarding `Nc1nc(SC2CCCCC2)nc(-c2c(Cl)cc3c4c(cccc24)COC3)n1` [Example 92, 4-(5-chloro-1H,3H-benzo[de]isochromen-6-yl)-6-cyclohexylsulfanyl-[1,3,5]triazin-2-ylamine], the 50% inhibitory concentration (IC50) in the assay on HCT116 cells came to 9.2 µM; on Human HSP90 alpha it was 1.1 µM.

`COC(=O)CSc1nc(N)nc(-c2c(Cl)cc3c4c(cccc24)COC3)n1` [Example 111, [4-amino-6-(5-chloro-1H,3H-benzo[de]isochromen-6-yl)-[1,3,5]triazin-2-ylsulfanyl]-acetic acid methyl ester]: the IC50 worked out at 0.2 µM in the assay on HCT116 cells and 1.1 µM at Human HSP90 alpha. Regarding `CC(=O)Nc1ccccc1CSc1nc(N)nc(-c2c(Cl)cc3c4c(cccc24)COC3)n1` [Example 143, N-{2-[4-Amino-6-(5-chloro-1H,3H-benzo[de]isochromen-6-yl)-[1,3,5]triazin-2-ylsulfanylmethyl]-phenyl}-acetamide], the half-inhibitory concentration (IC50) in the assay with HCT116 cells stood at 0.28 µM; on Human HSP90 alpha, 1 µM.

With `COc1ccc(OC)c(Sc2nc(N)nc(-c3c(Cl)cc4c5c(cccc35)COC4)n2)c1` [Example 145, 4-(5-Chloro-1H,3H-benzo[de]isochromen-6-yl)-6-(2,5-dimethoxyphenylsulfanyl)-[1,3,5]triazin-2-ylamine], the half-maximal inhibitory concentration (IC50) in the assay on HCT116 cells amounted to 0.24 µM; on Human HSP90 alpha, 1.9 µM.

Turning to `CC(=O)NCCCSc1nc(N)nc(-c2c(Cl)cc3c4c(cccc24)COC3)n1` [Example 149, N-{3-[4-amino-6-(5-chloro-1H,3H-benzo[de]isochromen-6-yl)-[1,3,5]triazin-2-ylsulfanyl]-propyl}-acetamide], the figures for the IC50 in the assay with HCT116 cells and on Human HSP90 alpha were 0.11 µM and 2.8 µM, respectively. Regarding `NC(=O)CSc1cc(-c2c(Cl)cc3c4c(cccc24)COC3)nc(N)n1` [Example 314, 2-[2-amino-6-(5-chloro-1H,3H-benzo[de]isochromen-6-yl)-pyrimidin-4-ylsulfanyl]-acetamide], the figures for the IC50 in the assay with HCT116 cells and on Human HSP90 alpha were 1.1 µM and 1.3 µM, respectively. The corresponding values for `N#CCNC(=O)CSc1cc(-c2c(Cl)cc3c4c(cccc24)COC3)nc(N)n1` [Example 315, 2-[2-amino-6-(5-chloro-1H,3H-benzo[de]isochromen-6-yl)-pyrimidin-4-ylsulfanyl]-N-cyanomethyl-acetamide] are 2.1 µM and 1.9 µM. The like results for `NC(=O)CCSc1cc(-c2c(Cl)cc3c4c(cccc24)COC3)nc(N)n1` [Example 316, 3-[2-amino-6-(5-chloro-1H,3H-benzo[de]isochromen-6-yl)-pyrimidin-4-ylsulfanyl]-propionamide] were, in that order, 0.45 µM and 2.1 µM.
